In patent US7462472B2 (priority 2001, dated 2008):

Key:
[1] = target: CaM (Homo sapiens, UniProt P0DP23, T111C/T35C); assay: biochemical; format: binding
[2] = target: CaM34/110-AEDANS/DAB, human CaM mutant [change]/[change] labeled with donor and acceptor (human) (UniProt P0DP23); assay: fluorescence (FRET) titration of donor-acceptor labeled CaM34/110 with CyaA1-412

Chain of CyaA1-412, adenylyl cyclase domain (amino acids 1-412) of CyaA (J7QLC0 1-412): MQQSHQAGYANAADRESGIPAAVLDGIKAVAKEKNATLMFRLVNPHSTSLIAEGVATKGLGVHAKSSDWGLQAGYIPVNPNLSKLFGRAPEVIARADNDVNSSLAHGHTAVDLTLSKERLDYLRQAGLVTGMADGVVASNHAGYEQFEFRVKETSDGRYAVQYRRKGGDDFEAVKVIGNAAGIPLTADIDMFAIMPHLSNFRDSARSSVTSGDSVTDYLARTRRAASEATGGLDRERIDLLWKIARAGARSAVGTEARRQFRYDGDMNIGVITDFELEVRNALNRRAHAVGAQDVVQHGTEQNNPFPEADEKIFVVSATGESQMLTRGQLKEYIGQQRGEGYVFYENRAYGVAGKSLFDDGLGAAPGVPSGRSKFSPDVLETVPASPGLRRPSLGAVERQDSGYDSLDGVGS

Row | Compound | Kd [1] [µM] | Kd [2] [µM]
1 | CC[C@H](C)[C@H](NC(=O)CNC(=O)[C@H](Cc1ccc(O)cc1)NC(=O)[C@H](CCCCN)NC(=O)[C@@H](NC(=O)[C@H](CC(C)C)NC(=O)[C@H](CC(C)C)NC(=O)[C@H](CC(N)=O)NC(=O)[C@@H](NC(=O)[C@@H](NC(=O)CNC(=O)[C@H](CCCCN)NC(=O)[C@H](CCC(N)=O)NC(=O)[C@H](CCCCN)NC(=O)[C@H](CCC(=O)O)NC(=O)[C@H](CC(C)C)NC(=O)[C@H](CO)NC(=O)[C@@H](N)CC(N)=O)C(C)C)[C@@H](C)O)[C@@H](C)CC)C(=O)N[C@@H](CCC(=O)O)C(=O)O [helix H peptide] | 8.8 | 
2 | CyaA1-412, adenylyl cyclase domain (amino acids 1-412) of CyaA (from UniProt J7QLC0 1-412) (enzyme) |  | 10
